From patent publication US20210094920A1, “NR2B LIGANDS; METHOD OF MAKING; AND USE THEREOF” (THE UNITED STATES OF AMERICA, AS REPRESENTED BY THE …, priority 2018, published 2021)
Where two headings read alike, the source gives them in different places. One block for each molecule: values may come before it.

Legend:
σ1 receptor = σ1 receptor (Homo sapiens, UniProt Q99720); test: σ1 receptor binding at 10 μM
Description: (§1) All derivatives were evaluated for binding to the NR2B site and other neuro-targets. Table 1 provides the structures of the derivatives, molecular weight, calculated Log D values, the structure-activity relationship, and binding data.

σ2 receptor = σ2 receptor (Homo sapiens, UniProt Q5BJF2); test: σ2 receptor binding at 10 μM
Description: as §1

NR2B site = NR2B site (Homo sapiens, UniProt Q05586+Q13224); test: binding to the NR2B site (Ki, automatic and manual); settings: for affinity for NR2B: stated in words
Description: as §1

[1] = target: NR2B subunits in NMDA receptors (Rattus norvegicus, UniProt P35439+Q00960); test: PET imaging of brain in rats (baseline, preblock, displacement); settings: for effect of pretreatment on brain radioactivity uptake / displacement of radioligand: radioligand [^11C]NR2B-SMe; for displacement of radioligand: given at 15 min after radioligand, over 90 min; for brain radioactivity uptake / washout of brain radioactivity: rats at baseline; for brain radioactivity uptake: i.v. radioligand, at 5 minutes; for washout of brain radioactivity: over 90 minutes
Description: Displacement studies where NR2B-SMe or eliprodil was given at 15 min after radioligand were also performed.

[2] = tested on: NR2B subunits in NMDA receptors; test: Brain PET imaging (VT/fP) in monkey (baseline, Co101244 block, self-block); format: in vivo
Description: Table 2 provides the normalized total volume of distribution (VT/fP) (ml/cm^3) for whole brain and specific regions of the brain at baseline, Co101244 (1-[2-(4-hydroxyphenoxy)ethyl]-4-[(4-methylphenyl)methyl]-4-piperidinol) block and self-block.

[3] = tested on: NR2B subunits in NMDA receptors; test: as above; format: in vivo; remark: listed apart in the source
[4] = automatic, read-out: Ki (nM), automatic
[5] = manual, read-out: Ki (nM), manual
[6] = rats, 0.01-3 mg/kg, i.v. at 15 min before radioligand injection

Sequence of σ2 receptor (Q5BJF2 whole entry, species assumed): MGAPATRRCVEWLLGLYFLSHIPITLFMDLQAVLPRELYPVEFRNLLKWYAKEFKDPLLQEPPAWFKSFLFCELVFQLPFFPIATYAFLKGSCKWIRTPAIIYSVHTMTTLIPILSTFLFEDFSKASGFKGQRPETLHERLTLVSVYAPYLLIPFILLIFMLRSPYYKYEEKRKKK
Sequence of NR2B site (Q13224 27-1484, other chains not shown): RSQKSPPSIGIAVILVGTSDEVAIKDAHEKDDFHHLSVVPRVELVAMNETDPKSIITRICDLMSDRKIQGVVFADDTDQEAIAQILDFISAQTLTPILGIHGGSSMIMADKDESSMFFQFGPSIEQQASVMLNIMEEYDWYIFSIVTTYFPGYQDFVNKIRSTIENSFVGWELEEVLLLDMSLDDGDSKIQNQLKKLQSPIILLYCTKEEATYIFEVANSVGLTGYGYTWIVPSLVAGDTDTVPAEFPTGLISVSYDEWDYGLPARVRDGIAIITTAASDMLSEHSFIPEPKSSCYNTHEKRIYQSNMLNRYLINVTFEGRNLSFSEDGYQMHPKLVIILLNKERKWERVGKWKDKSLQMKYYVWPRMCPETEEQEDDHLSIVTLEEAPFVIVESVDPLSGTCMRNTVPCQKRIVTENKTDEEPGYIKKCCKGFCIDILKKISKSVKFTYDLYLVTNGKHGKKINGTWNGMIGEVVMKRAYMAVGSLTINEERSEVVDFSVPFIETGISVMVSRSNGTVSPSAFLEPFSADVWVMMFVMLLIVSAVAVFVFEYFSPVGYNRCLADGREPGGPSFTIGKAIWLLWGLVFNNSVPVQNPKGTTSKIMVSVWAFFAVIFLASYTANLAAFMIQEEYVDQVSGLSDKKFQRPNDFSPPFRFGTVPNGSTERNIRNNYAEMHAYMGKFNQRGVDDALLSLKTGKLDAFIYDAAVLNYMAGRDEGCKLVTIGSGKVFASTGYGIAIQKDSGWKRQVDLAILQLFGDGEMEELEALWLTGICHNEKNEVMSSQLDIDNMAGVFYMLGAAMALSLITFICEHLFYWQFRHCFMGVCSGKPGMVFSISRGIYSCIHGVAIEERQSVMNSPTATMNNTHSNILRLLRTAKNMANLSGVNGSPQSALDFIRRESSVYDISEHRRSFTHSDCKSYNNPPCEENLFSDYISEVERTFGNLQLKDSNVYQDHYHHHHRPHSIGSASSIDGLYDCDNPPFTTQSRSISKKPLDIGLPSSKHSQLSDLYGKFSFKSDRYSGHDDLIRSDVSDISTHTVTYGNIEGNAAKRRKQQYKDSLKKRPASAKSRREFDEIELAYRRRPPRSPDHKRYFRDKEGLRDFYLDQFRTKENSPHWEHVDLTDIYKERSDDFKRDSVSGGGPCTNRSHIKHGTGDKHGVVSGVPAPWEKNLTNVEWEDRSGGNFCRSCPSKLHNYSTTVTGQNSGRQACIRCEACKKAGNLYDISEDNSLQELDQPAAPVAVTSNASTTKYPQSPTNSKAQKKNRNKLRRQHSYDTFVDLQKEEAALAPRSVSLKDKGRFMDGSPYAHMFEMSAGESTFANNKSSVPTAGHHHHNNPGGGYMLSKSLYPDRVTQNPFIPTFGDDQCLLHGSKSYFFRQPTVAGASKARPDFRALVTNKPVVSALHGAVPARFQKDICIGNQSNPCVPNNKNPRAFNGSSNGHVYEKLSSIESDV
Sequence of NR2B subunits in NMDA receptors (Rattus norvegicus, UniProt P35439+Q00960) (Q00960 27-1482, other chains not shown): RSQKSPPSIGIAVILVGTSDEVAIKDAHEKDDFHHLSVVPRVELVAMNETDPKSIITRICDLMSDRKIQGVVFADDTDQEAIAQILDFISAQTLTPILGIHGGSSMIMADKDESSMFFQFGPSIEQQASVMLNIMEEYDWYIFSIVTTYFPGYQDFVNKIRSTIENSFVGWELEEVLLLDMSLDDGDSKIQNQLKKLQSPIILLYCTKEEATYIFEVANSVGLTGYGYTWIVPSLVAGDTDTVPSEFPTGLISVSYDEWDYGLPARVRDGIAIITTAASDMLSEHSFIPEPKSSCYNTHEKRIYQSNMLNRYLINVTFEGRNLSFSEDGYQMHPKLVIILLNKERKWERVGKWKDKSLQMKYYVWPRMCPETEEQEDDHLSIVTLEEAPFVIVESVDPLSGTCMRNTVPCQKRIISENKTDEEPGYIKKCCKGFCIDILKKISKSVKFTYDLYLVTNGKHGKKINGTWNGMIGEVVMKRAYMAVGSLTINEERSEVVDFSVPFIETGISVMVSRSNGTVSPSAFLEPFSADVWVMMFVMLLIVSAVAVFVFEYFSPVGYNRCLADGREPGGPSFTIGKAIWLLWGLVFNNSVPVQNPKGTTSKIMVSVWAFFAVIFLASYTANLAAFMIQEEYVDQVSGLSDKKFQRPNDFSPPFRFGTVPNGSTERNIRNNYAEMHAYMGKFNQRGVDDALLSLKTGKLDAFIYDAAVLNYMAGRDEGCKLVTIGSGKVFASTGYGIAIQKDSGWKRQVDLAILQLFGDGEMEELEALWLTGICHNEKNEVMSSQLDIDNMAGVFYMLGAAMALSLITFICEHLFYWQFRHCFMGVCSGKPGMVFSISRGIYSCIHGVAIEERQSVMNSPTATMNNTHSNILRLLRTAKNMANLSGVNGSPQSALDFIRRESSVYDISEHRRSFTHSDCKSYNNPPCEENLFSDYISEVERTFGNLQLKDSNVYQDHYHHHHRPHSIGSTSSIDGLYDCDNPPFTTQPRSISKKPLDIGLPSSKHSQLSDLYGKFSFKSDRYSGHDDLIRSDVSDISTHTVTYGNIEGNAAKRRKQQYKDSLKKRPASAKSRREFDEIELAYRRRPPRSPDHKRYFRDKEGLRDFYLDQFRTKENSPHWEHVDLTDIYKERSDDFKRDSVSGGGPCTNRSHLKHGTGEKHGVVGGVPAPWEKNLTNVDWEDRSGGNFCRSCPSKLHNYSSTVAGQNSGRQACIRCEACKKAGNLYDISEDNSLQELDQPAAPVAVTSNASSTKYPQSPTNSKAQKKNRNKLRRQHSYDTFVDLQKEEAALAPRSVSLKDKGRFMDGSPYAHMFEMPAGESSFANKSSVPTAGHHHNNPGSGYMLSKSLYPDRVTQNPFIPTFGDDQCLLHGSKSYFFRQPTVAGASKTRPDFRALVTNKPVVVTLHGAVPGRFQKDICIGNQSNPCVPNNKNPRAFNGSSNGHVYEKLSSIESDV
Sequence of σ1 receptor (Q99720 whole entry): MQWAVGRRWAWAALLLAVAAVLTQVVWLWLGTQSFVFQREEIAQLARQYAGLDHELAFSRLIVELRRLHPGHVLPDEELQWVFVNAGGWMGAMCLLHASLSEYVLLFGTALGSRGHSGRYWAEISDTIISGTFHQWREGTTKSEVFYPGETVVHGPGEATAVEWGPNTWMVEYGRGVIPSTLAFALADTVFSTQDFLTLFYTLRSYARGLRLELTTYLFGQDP

inhibition at 10 µM (σ1 receptor): 89.1% | inhibition at 10 µM (σ2 receptor): 87.8% | Ki (NR2B site; [4]): 43.5 nM | Ki (NR2B site; [5]): 9.8 nM
SMILES: COc1ccc2c(c1)CCN(CCCCc1ccccc1)CC2O (stereo not drawn) [Compound 1, 7-methoxy-3-(4-phenylbutyl)-2,3,4,5-tetrahydro-1H-benzo[d]azepin-1-ol, reference compound]

inhibition at 10 µM (σ1 receptor): 84.4%
SMILES: COc1ccc2c(c1)CCN(CCCCc1ccc3ccccc3c1)CC2O (stereo not drawn) [Compound 2]

inhibition at 10 µM (σ2 receptor): 91.4%
SMILES: COc1ccc(CCCCN2CCc3cc(OC)ccc3C(O)C2)cc1 (stereo not drawn) [Compound 3]

inhibition at 10 µM (σ1 receptor): 89.7% | inhibition at 10 µM (σ2 receptor): 90.7% | Ki (NR2B site; [4]): 31.3 nM | Ki (NR2B site; [5]): 4.9 nM | affinity for NR2B (NR2B site): in the nM range
SMILES: COc1ccc2c(c1)CCN(CCCCc1ccc(C)cc1)CC2O (stereo not drawn) [Compound 4, 7-methoxy-3-(4-(4-methylphenyl)butyl)-2,3,4,5-tetrahydro-1H-benzo[d]azepin-1-ol]

inhibition at 10 µM (σ1 receptor): 83.7% | inhibition at 10 µM (σ2 receptor): 90%
SMILES: COc1ccc2c(c1)CCN(CCCCc1ccc(Br)cc1)CC2O (stereo not drawn) [Compound 5]

inhibition at 10 µM (σ1 receptor): 57.9% | inhibition at 10 µM (σ2 receptor): 76.9%
SMILES: COc1ccc2c(c1)CCN(CCCCc1ccc(F)cc1)CC2O (stereo not drawn) [Compound 6]

inhibition at 10 µM (σ1 receptor): 66.4% | inhibition at 10 µM (σ2 receptor): 74.2%
SMILES: COc1ccc2c(c1)CCN(CCC#Cc1ccccn1)CC2O (stereo not drawn) [Compound 7]

inhibition at 10 µM (σ1 receptor): 40.8% | inhibition at 10 µM (σ2 receptor): 56.4%
SMILES: COc1ccc2c(c1)CCN(CCC#Cc1cccc(F)n1)CC2O (stereo not drawn) [Compound 8]

SMILES: COc1ccc2c(c1)CCN(CCCCc1ccc(SC)cc1)CC2O (stereo not drawn) [Compound 9, 7-methoxy-3-(4-(4-(methylthio)phenyl)butyl)-2,3,4,5-tetrahydro-1H-benzo[d]azepin-1-ol]
Ki (NR2B site; [4]): 20 nM | affinity for NR2B (NR2B site): in the nM range | effect of pretreatment on brain radioactivity uptake [1, 6]: blocked brain radioactivity uptake in a dose-dependent manner | displacement of radioligand ([1]; rats): only slow and low displacement

displacement of radioligand ([1]; rats): failed to displace radioligand
SMILES: OC(CN1CCC(Cc2ccc(F)cc2)CC1)c1ccc(Cl)cc1 (stereo not drawn) [Eliprodil, reference compound]
effect of pretreatment on brain radioactivity uptake ([1]; rats, 3 mg/kg i.v): blocked brain radioactivity uptake to the similar high extent

SMILES: COc1ccc(CCN2CCN(CCCc3ccccc3)CC2)cc1OC [SA 4503, reference compound]
effect of pretreatment on brain radioactivity uptake [1, 6]: blocked brain radioactivity uptake in a dose-dependent manner

brain radioactivity uptake [1]: 3.0 SUV | washout of brain radioactivity [1]: slow washout
SMILES: COc1ccc2c(c1)CCN(CCCCc1ccc(C)cc1)CC2O (stereo not drawn) [[^11C]NR2B-Me, 7-methoxy-3-(4-(4-methylphenyl)butyl)-2,3,4,5-tetrahydro-1H-benzo[d]azepin-1-ol]

Normalized Total Volume of Distribution (VT/fp) ([2]; Amygdala, Baseline Ave.): 3171.1 ml/cm^3 | Normalized Total Volume of Distribution (VT/fp) ([2]; Amygdala, Co101244 block): 515.5 ml/cm^3 | Normalized Total Volume of Distribution (VT/fp) ([2]; Amygdala, Self-block): 405.4 ml/cm^3 | Normalized Total Volume of Distribution (VT/fp) ([2]; Cerebellum, Baseline Ave.): 1465.9 ml/cm^3 | Normalized Total Volume of Distribution (VT/fp) ([2]; Cerebellum, Co101244 block): 426.4 ml/cm^3 | Normalized Total Volume of Distribution (VT/fp) ([2]; Cerebellum, Self-block): 348.6 ml/cm^3 | Normalized Total Volume of Distribution (VT/fp) ([2]; Cingulate Cortex, Baseline Ave.): 2388.9 ml/cm^3 | Normalized Total Volume of Distribution (VT/fp) ([2]; Cingulate Cortex, Co101244 block): 523.3 ml/cm^3 | Normalized Total Volume of Distribution (VT/fp) ([2]; Cingulate Cortex, Self-block): 400.0 ml/cm^3 | Normalized Total Volume of Distribution (VT/fp) ([2]; Frontal Cortex, Baseline Ave.): 2254.5 ml/cm^3 | Normalized Total Volume of Distribution (VT/fp) ([2]; Frontal Cortex, Co101244 block): 562.0 ml/cm^3 | Normalized Total Volume of Distribution (VT/fp) ([2]; Frontal Cortex, Self-block): 451.4 ml/cm^3 | Normalized Total Volume of Distribution (VT/fp) ([2]; Hippocampus, Baseline Ave.): 2389.6 ml/cm^3 | Normalized Total Volume of Distribution (VT/fp) ([2]; Hippocampus, Co101244 block): 465.1 ml/cm^3 | Normalized Total Volume of Distribution (VT/fp) ([2]; Hippocampus, Self-block): 370.3 ml/cm^3 | Normalized Total Volume of Distribution (VT/fp) ([2]; Insula, Baseline Ave.): 2314.2 ml/cm^3 | Normalized Total Volume of Distribution (VT/fp) ([2]; Insula, Co101244 block): 542.6 ml/cm^3 | Normalized Total Volume of Distribution (VT/fp) ([2]; Insula, Self-block): 408.1 ml/cm^3 | Normalized Total Volume of Distribution (VT/fp) ([2]; Occipital Lobe, Baseline Ave.): 1676.3 ml/cm^3 | Normalized Total Volume of Distribution (VT/fp) ([2]; Occipital Lobe, Co101244 block): 484.5 ml/cm^3 | Normalized Total Volume of Distribution (VT/fp) ([2]; Occipital Lobe, Self-block): 402.7 ml/cm^3 | Normalized Total Volume of Distribution (VT/fp) ([2]; Parietal Lobe, Baseline Ave.): 2001.4 ml/cm^3 | Normalized Total Volume of Distribution (VT/fp) ([2]; Parietal Lobe, Co101244 block): 538.8 ml/cm^3 | Normalized Total Volume of Distribution (VT/fp) ([2]; Parietal Lobe, Self-block): 440.5 ml/cm^3 | Normalized Total Volume of Distribution (VT/fp) ([2]; Striatum, Baseline Ave.): 1965.2 ml/cm^3 | Normalized Total Volume of Distribution (VT/fp) ([2]; Striatum, Co101244 block): 573.6 ml/cm^3 | Normalized Total Volume of Distribution (VT/fp) ([2]; Striatum, Self-block): 437.8 ml/cm^3 | Normalized Total Volume of Distribution (VT/fp) ([2]; Temporal Lobe, Baseline Ave.): 1956.8 ml/cm^3 | Normalized Total Volume of Distribution (VT/fp) ([2]; Temporal Lobe, Co101244 block): 476.7 ml/cm^3 | Normalized Total Volume of Distribution (VT/fp) ([2]; Temporal Lobe, Self-block): 373.0 ml/cm^3 | Normalized Total Volume of Distribution (VT/fp) ([2]; Thalamus, Baseline Ave.): 2385.1 ml/cm^3 | Normalized Total Volume of Distribution (VT/fp) ([2]; Thalamus, Co101244 block): 596.9 ml/cm^3 | Normalized Total Volume of Distribution (VT/fp) ([2]; Thalamus, Self-block): 445.9 ml/cm^3 | Normalized Total Volume of Distribution (VT/fp) ([2]; Whole Brain, Baseline Ave.): 1959.7 ml/cm^3 | Normalized Total Volume of Distribution (VT/fp) ([2]; Whole Brain, Co101244 block): 511.6 ml/cm^3 | Normalized Total Volume of Distribution (VT/fp) ([2]; whole brain, self-block): 408.1 ml/cm^3 | time after radioligand injection from which V showed time stability [3]: ≥ 80 min | displacement ([1]; PET imaging in rats): 65% | preblocking ([1]; PET imaging in rats): 95% | reversibility of binding ([1]; PET imaging in rats): reversible binding | washout of brain radioactivity [1]: slow washout | brain radioactivity uptake (in words) ([1]; rats, within 5 minutes): very high
SMILES: COc1ccc2c(c1)CCN(CCCCc1ccc(C)cc1)C[C@@H]2O [[^11C]NR2B-MeI, (R)(−)7-methoxy-3-(4-(4-methylphenyl)butyl)-2,3,4,5-tetrahydro-1H-benzo[d]azepin-1-ol]
binding potential of whole brain, BPND ([2]; whole brain, Co101244): 3.8 | binding potential of whole brain, BPND ([3]; whole brain, self-block): 4.6

SMILES: COc1ccc2c(c1)CCN(CCCCc1ccc(SC)cc1)CC2O (stereo not drawn) [[^11C]NR2B-SMe, [^11C] 7-methoxy-3-(4-(4-(methylthio)phenyl)butyl)-2,3,4,5-tetrahydro-1H-benzo[d]azepin-1-ol]
brain radioactivity uptake [1]: 3.5 SUV | washout of brain radioactivity [1]: very low washout

SMILES: CC(C(O)c1ccc(O)cc1)N1CCC(Cc2ccccc2)CC1 (stereo not drawn) [ifendopril, reference compound]
effect of pretreatment on brain radioactivity uptake ([1]; rats, 3 mg/kg i.v): blocked brain radioactivity uptake to the similar high extent
